In general, IC50 refers to the midpoint of a concentration-inhibition curve.

The target of the first assay is T1, Chk1 (Homo sapiens, UniProt O14757).
T1 construct: purchased Upstate Biotechnology
T1 sequence (O14757 1-476): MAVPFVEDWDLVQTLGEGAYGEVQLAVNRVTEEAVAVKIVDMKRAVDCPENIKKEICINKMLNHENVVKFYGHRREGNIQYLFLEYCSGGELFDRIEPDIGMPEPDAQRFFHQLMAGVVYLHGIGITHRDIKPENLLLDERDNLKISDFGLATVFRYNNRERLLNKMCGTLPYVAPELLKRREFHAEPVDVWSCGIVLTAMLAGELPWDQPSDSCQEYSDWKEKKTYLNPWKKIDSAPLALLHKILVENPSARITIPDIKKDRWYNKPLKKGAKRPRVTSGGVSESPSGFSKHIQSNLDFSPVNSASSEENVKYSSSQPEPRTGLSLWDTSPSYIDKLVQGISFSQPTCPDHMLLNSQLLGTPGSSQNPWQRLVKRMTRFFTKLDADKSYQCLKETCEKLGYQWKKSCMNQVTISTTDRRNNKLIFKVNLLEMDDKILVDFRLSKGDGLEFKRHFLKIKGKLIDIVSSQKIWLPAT
In words: Chk1 kinase assay: incorporation of γ-33P ATP into immobilized myelin basic protein. In kind it is biochemical. The note with it: Table 11, Chk1 only; class symbols A-D; read-out: Chk1 IC50. Summed up:
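Radiometric filter-free format: Chk1 10 nM, 10 μM ATP; Chk2 20 nM, 30 μM ATP; γ-33P ATP tracer; immobilized MBP substrate; Hepes pH 7.6, 10 mM MgCl2, 1 mM DTT; 1 h RT; 1% DMSO. Scintillation counting of washed plates. IC50/Ki from curve fit.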
Turning to `Nc1ncc(-c2cccc(CNC(=O)c3cncc(-c4cccs4)c3)c2)nc1C(=O)N[C@H]1CCCNC1` [Example 949, 3-amino-N-[(3S)-piperidin-3-yl]-6-{3-[({[5-(2-thienyl)pyridin-3-yl]carbonyl}amino)methyl]phenyl}pyrazine-2-carboxamide], the IC50 is less than 0.05 µM. Still for that read-out and setting: for `Nc1ncc(-c2cccc(C(=O)NCc3ccc(Cl)c(Cl)c3)c2)nc1C(=O)N[C@H]1CCCNC1` [Example 985, 3-amino-6-[3-({[(3,4-dichlorophenyl)methyl]amino}carbonyl)phenyl]-N-[(3S)-piperidin-3-yl]pyrazine-2-carboxamide] the value was less than 0.05 µM; for `Nc1cc(-c2n[nH]c(-c3nc(-c4cccc(CN[C@H]5CCc6ccccc65)c4)cnc3N)n2)ccn1` [Example 946, 3-[3-(2-aminopyridin-4-yl)-1H-1,2,4-triazol-5-yl]-5-(3-{[(1S)-2,3-dihydro-1H-inden-1-ylamino]methyl}phenyl)pyrazin-2-amine], less than 0.05 µM; for `Cc1ccccc1CC(=O)Nc1cccc(-c2cnc(N)c(C(=O)N[C@H]3CCCNC3)n2)c1` [Example 975, 3-amino-6-(3-{[(2-methylphenyl)acetyl]amino}phenyl)-N-[(3S)-piperidin-3-yl]pyrazine-2-carboxamide], less than 0.05 µM. As to `Nc1ncc(-c2cccc(C(=O)NCc3cccc(Cl)c3F)c2)nc1C(=O)N[C@H]1CCCNC1` [Example 997, 3-amino-6-[3-({[(3-chloro-2-fluorophenyl)methyl]amino}carbonyl)phenyl]-N-[(3S)-piperidin-3-yl]pyrazine-2-carboxamide], the IC50 was less than 0.05 µM. As to `Nc1ncc(-c2cccc(CNS(=O)(=O)c3ccc(OC(F)(F)F)cc3)c2)nc1C(=O)N[C@H]1CCCNC1` [Example 916, 3-amino-N-[(3S)-piperidin-3-yl]-6-(3-{[({4-[(trifluoromethyl)oxy]phenyl}sulfonyl)amino]methyl}phenyl)pyrazine-2-carboxamide], the IC50 is 0.05 to 1 µM.

The same assay, now with this note: Table 11; Chk1 only; read-out: Chk1 IC50.
Turning to `Nc1ncc(-c2cccc(C(=O)NCCc3ccccc3)c2)nc1C(=O)N[C@H]1CCNC1` [Example 715, 3-amino-6-(3-{[(2-phenylethyl)amino]carbonyl}phenyl)-N-[(3S)-pyrrolidin-3-yl]pyrazine-2-carboxamide], the IC50 was 0.05 to 1 µM. The same measure, in the same setting: then `Nc1ncc(-c2cccc(CN[C@H]3CCc4ccccc43)c2)nc1-c1nc(-c2ccncc2)n[nH]1` [Example 723, 5-(3-{[(1S)-2,3-dihydro-1H-inden-1-ylamino]methyl}phenyl)-3-(3-pyridin-4-yl-1H-1,2,4-triazol-5-yl)pyrazin-2-amine], with less than 0.05 µM; and `CNC(=O)c1nc(-c2cccc(CNC3CCc4cccc(F)c43)c2)cnc1N` (stereo not shown) [Example 502, 3-amino-6-(3-{[(7-fluoro-2,3-dihydro-1H-inden-1-yl)amino]methyl}phenyl)-N-methylpyrazine-2-carboxamide], with 0.05 to 1 µM; and `CNC(=O)c1nc(-c2cccc(CNCc3ccc(-c4cccs4)cc3F)c2)cnc1N` [Example 450, 3-amino-6-{3-[({[2-fluoro-4-(2-thienyl)phenyl]methyl}amino)methyl]phenyl}-N-methylpyrazine-2-carboxamide], with less than 0.05 µM. Turning to `Nc1ncc(-c2cccc(CO)c2)nc1-c1nnc(-c2ccco2)[nH]1` [Example 570, {3-[5-amino-6-(5-furan-2-yl-4H-1,2,4-triazol-3-yl)pyrazin-2-yl]phenyl}methanol], the IC50 lay within 0.05 to 1 µM.

Regarding `CN1CCN(C(=O)c2nc(-c3cccc(C(=O)NCc4ccccc4)c3)cnc2N)CC1` [Example 573, 3-{5-amino-6-[(4-methylpiperazin-1-yl)carbonyl]pyrazin-2-yl}-N-(phenylmethyl)benzamide], the IC50 is no less than 10 µM.

Take `CCN1CC[C@H](NC(=O)c2nc(-c3cccc(C(=O)NCc4ccccc4)c3)cnc2N)C1` [Example 700, 3-amino-N-[(3S)-1-ethylpyrrolidin-3-yl]-6-(3-{[(phenylmethyl)amino]carbonyl}phenyl)pyrazine-2-carboxamide]: the IC50 lay in the range of 0.05 to 1 µM.

Still in this assay, the particulars now being: read-out: Chk1 IC50.
`CNC(=O)c1nc(-c2cccc(C(=O)NCc3c(F)cccc3Cl)c2)cnc1N` [Example 171, 3-amino-6-[3-({[(2-chloro-6-fluorophenyl)methyl]amino}carbonyl)phenyl]-N-methylpyrazine-2-carboxamide]: the IC50 is 0.05 to 1 µM. In the case of `CNC(=O)c1nc(-c2cccc(-c3noc(Cc4ccccc4)n3)c2)cnc1N` [Example 137, 3-amino-N-methyl-6-{3-[5-(phenylmethyl)-1,2,4-oxadiazol-3-yl]phenyl}pyrazine-2-carboxamide], the IC50 was in the range of 1 to 10 µM. As for `CNC(=O)c1nc(-c2cccc(C(=O)NCc3cc(OC)ccc3OC)c2)cnc1N` [Example 294, 3-amino-6-{3-[({[2,5-bis(methyloxy)phenyl]methyl}amino)carbonyl]phenyl}-N-methylpyrazine-2-carboxamide], the IC50 lay in the range of 0.05 to 1 µM.

Turning to `CNC(=O)c1nc(-c2cccc(C(=O)NCc3ccc(F)c(C(F)(F)F)c3)c2)cnc1N` [Example 228, 3-amino-6-{3-[({[4-fluoro-3-(trifluoromethyl)phenyl]methyl}amino)carbonyl]phenyl}-N-methylpyrazine-2-carboxamide], the 50% inhibitory concentration (IC50) fell in the range of 0.05 to 1 µM. As to `CNC(=O)c1nc(-c2cccc(C(=O)NCc3ccc(SC)cc3)c2)cnc1N` [Example 216, 3-amino-N-methyl-6-{3-[({[4-(methylthio)phenyl]methyl}amino)carbonyl]phenyl}pyrazine-2-carboxamide], the half-maximal inhibitory concentration (IC50) was less than 0.05 µM. Consider `CNC(=O)c1nc(-c2cccc(C(=O)NCCc3ccccc3)c2)cnc1N` [Example 94, 3-amino-N-methyl-6-(3-{[(2-phenylethyl)amino]carbonyl}phenyl)pyrazine-2-carboxamide], for which the IC50 was in the range of 0.05 to 1 µM. `CNC(=O)c1nc(-c2cccc(C(=O)NCC3CCCC3)c2)cnc1N` [Example 253, 3-amino-6-(3-{[(cyclopentylmethyl)amino]carbonyl}phenyl)-N-methylpyrazine-2-carboxamide]: the IC50 was in the range of 0.05 to 1 µM. The same measure, in the same setting: then `CNC(=O)c1nc(-c2cccc(C(=O)NCc3ccc(-c4cccnc4)cc3)c2)cnc1N` [Example 414, 3-amino-N-methyl-6-[3-({[(4-pyridin-3-ylphenyl)methyl]amino}carbonyl)phenyl]pyrazine-2-carboxamide], with 0.05 to 1 µM; and `CNC(=O)c1nc(-c2cccc(C(=O)NCc3cc(F)ccc3F)c2)cnc1N` [Example 337, 3-amino-6-[3-({[(2,5-difluorophenyl)methyl]amino}carbonyl)phenyl]-N-methylpyrazine-2-carboxamide], with 0.05 to 1 µM.

Consider `CNC(=O)c1nc(-c2cccc(C(=O)NCc3cc(OC)c(OC)c(OC)c3)c2)cnc1N` [Example 162, 3-amino-N-methyl-6-{3-[({[3,4,5-tris(methyloxy)phenyl]methyl}amino)carbonyl]phenyl}pyrazine-2-carboxamide], for which the IC50 was in the range of 0.05 to 1 µM. Still for that read-out and setting: then `NC(=O)c1nc(-c2ccc(F)cc2F)cnc1N` [Example 18, 3-amino-6-(2,4-difluorophenyl)pyrazine-2-carboxamide], with no less than 10 µM; and `CNC(=O)c1nc(-c2cccc(OCCN3CCC(CCO)CC3)c2)cnc1N` [Example 176, 3-amino-6-[3-({2-[4-(2-hydroxyethyl)piperidin-1-yl]ethyl}oxy)phenyl]-N-methylpyrazine-2-carboxamide], with 1 to 10 µM.

Source of the values: US7704995B2 (Exelixis, Inc., priority 2003, dated 2010).
